Test results taken from ChEMBL document CHEMBL4831491, “Non-carboxylic acid inhibitors of aldose reductase based on N-substituted thiazolidinedione derivatives” (Eur J Med Chem, 2021).
Converted amounts (≈) assume the structure as drawn.

Assays:
[1] = Inhibition of ALR2 in Wistar rat lens assessed as reduction in NADPH consumption using D,L-glyceraldehyde and NADPH as substrate preincubated for 1 mins followed by substrate addition and measured upto 4 mins by spectrophotometric analysis; format: tissue-based
Rattus norvegicus [2] = organism: Rattus norvegicus; experiment: Inhibition of ALR2 in Wistar rat lens assessed as reduction in NADPH consumption at 10 uM using D,L-glyceraldehyde and NADPH as substrate preincubated for 1 mins followed by substrate addition and measured upto 4 mins by spectrophotometric analysis; format: tissue-based; settings: time 5.0 min
physchem [3] = settings: PBS buffer, pH 7.4
in vitro [4] = settings: dog, MDCK
Description: Apparent permeability of the compound across basolateral side to apical side in dog MDCK-II cells incubated for 150 mins by LC-MS/MS analysis

in vitro [5] = settings: dog, MDCK; remark: listed apart in the source
Description: Efflux ratio of apparent permeability in dog MDCK-II cells

in vitro [6] = settings: dog, MDCK; remark: listed apart in the source
Description: Apparent permeability of the compound across apical side to basolateral side in dog MDCK-II cells incubated for 150 mins by LC-MS/MS analysis

[7] = Solubility of the compound at >30 uM; format: physicochemical
Rattus norvegicus [8] = organism: Rattus norvegicus; experiment: Inhibition of ALR2 in Wistar rat lens assessed as reduction in NADPH consumption at 30 uM using D,L-glyceraldehyde and NADPH as substrate preincubated for 1 mins followed by substrate addition and measured upto 4 mins by spectrophotometric analysis; format: tissue-based; settings: time 5.0 min
[9] = Inhibition of ALR1 in Wistar rat kidney assessed as reduction in NADPH consumption using sodium D-glucuronate and NADPH as substrate preincubated for 1 mins followed by substrate addition and measured upto 4 mins by spectrophotometric analysis; format: tissue-based
Rattus norvegicus [10] = organism: Rattus norvegicus; experiment: Selectivity index, ratio of IC50 for ALR1 in Wistar rat kidney to IC50 for ALR2 in Wistar rat lens
physchem [11] = settings: n-octanol/PBS buffer, pH 7.4
Rattus norvegicus [12] = organism: Rattus norvegicus; experiment: Inhibition of ALR2 in Wistar rat lens assessed as reduction in NADPH consumption at 50 uM using D,L-glyceraldehyde and NADPH as substrate preincubated for 1 mins followed by substrate addition and measured upto 4 mins by spectrophotometric analysis; format: tissue-based; settings: time 5.0 min
in vitro [13] = settings: human, Caco-2
Description: Apparent permeability of the compound across apical side to basolateral side in human Caco-2 cells incubated for 150 mins by LC-MS/MS analysis

in vitro [14] = settings: human, Caco-2; remark: listed apart in the source
Description: Apparent permeability of the compound across basolateral side to apical side in human Caco-2 cells incubated for 150 mins by LC-MS/MS analysis

in vitro [15] = settings: human, Caco-2; remark: listed apart in the source
Description: Efflux ratio of apparent permeability in human Caco-2 cells

C#CCOc1ccc(/C=C2\SC(=O)N(CC(=O)NCc3ccccc3)C2=O)cc1
IC50 [1]: Nd(Insoluble) | inhibition (Rattus norvegicus [2]): 30.1%

O=C(CCCN1CCC(O)(c2ccc(Cl)cc2)CC1)c1ccc(F)cc1 [HALOPERIDOL]
solubility at 2 h, 200 µM (physchem [3]): 73.3 µM (≈ 27.6 µg/mL)

C=C[C@H]1C[N@@]2CC[C@H]1C[C@@H]2[C@@H](O)c1ccnc2ccc(OC)cc12 [QUINIDINE]
Papp B→A at 2.5 h (in vitro [4]): 21.4 ×10⁻⁶ cm/s | efflux ratio (in vitro [5]): 6.6 | Papp A→B at 2.5 h (in vitro [6]): 3.27 ×10⁻⁶ cm/s

COc1cc2nc(N3CCN(C(=O)c4ccco4)CC3)nc(N)c2cc1OC [PRAZOSIN]
Papp B→A at 2.5 h (in vitro [4]): 12.9 ×10⁻⁶ cm/s | efflux ratio (in vitro [5]): 1.9 | Papp A→B at 2.5 h (in vitro [6]): 6.85 ×10⁻⁶ cm/s

C[C@H]1O[C@@H](O[C@H]2[C@@H](O)C[C@H](O[C@H]3[C@@H](O)C[C@H](O[C@H]4CC[C@@]5(C)[C@H](CC[C@@H]6[C@@H]5C[C@@H](O)[C@]5(C)[C@@H](C7=CC(=O)OC7)CC[C@]65O)C4)O[C@@H]3C)O[C@@H]2C)C[C@H](O)[C@@H]1O [DIGOXIN]
Papp B→A at 2.5 h (in vitro [4]): 5.66 ×10⁻⁶ cm/s | efflux ratio (in vitro [5]): 30.3 | Papp A→B at 2.5 h (in vitro [6]): 0.19 ×10⁻⁶ cm/s

CCN(CC)C(=O)CN1C(=O)S/C(=C\c2ccccc2)C1=O
IC50 ([1]; read-out: IC50): 23.5 µM | inhibition (Rattus norvegicus [2]): 16.8% | solubility [7]: Insoluble

CCN(CC)C(=O)CN1C(=O)S/C(=C\c2ccc(Cl)cc2)C1=O
solubility [7]: Insoluble | inhibition (Rattus norvegicus [8]): 14%

CCCCNC(=O)CN1C(=O)S/C(=C\c2ccc(OC)cc2)C1=O
IC50 ([1]; read-out: IC50): 20.3 µM | solubility [7]: Insoluble | IC50 [9]: 17 µM | Ratio IC50 (Rattus norvegicus [10]): 0.8

COc1ccc(NC(=O)CN2C(=O)S/C(=C\c3ccccc3)C2=O)cc1
inhibition (Rattus norvegicus [2]): 29.2% | solubility [7]: Insoluble

CCN(CC)C(=O)CN1C(=O)S/C(=C\c2cccc(OC)c2)C1=O
solubility [7]: Insoluble | inhibition (Rattus norvegicus [8]): 15%

COCCc1ccc(OCC(O)CNC(C)C)cc1 (centres undefined) [METOPROLOL]
logD (physchem [11]): 0.05

O=C(CN1C(=O)S/C(=C\c2ccc(O)cc2)C1=O)Nc1ccc(F)cc1
IC50 ([1]; read-out: IC50): 1.47 µM | IC50 [9]: 8.06 µM | Ratio IC50 (Rattus norvegicus [10]): 5.4

CCN(CC)C(=O)CN1C(=O)S/C(=C/c2ccc(OC)c(OC)c2)C1=O
inhibition (Rattus norvegicus [12]): 81.8% | IC50 ([1]; read-out: IC50): 22.4 µM

CCCCNC(=O)CN1C(=O)S/C(=C\c2ccc(O)cc2)C1=O
IC50 ([1]; read-out: IC50): 5.68 µM | solubility [7]: Insoluble | IC50 [9]: 48.5 µM | Ratio IC50 (Rattus norvegicus [10]): 8.5

CCc1ccccc1NC(=O)CN1C(=O)S/C(=C\c2ccc(O)cc2)C1=O
IC50 ([1]; read-out: IC50): 1.9 µM | IC50 [9]: 2.85 µM | Ratio IC50 (Rattus norvegicus [10]): 1.5

COc1ccc(/C=C2\SC(=O)N(CC(=O)NCc3ccccc3)C2=O)cc1O
IC50 ([1]; read-out: IC50): 10.9 µM

O=C(CN1C(=O)S/C(=C\c2ccc(OCc3ccc(Cl)cc3Cl)cc2)C1=O)NCc1ccccc1
IC50 [1]: Nd(Insoluble) | inhibition (Rattus norvegicus [2]): 11.9%

O=C(CN1C(=O)S/C(=C\c2ccc(OCc3ccc(Cl)cc3Cl)cc2)C1=O)Nc1ccccc1
IC50 [1]: Nd(Insoluble) | inhibition (Rattus norvegicus [2]): 21.8%

C#CCOc1ccc(/C=C2\SC(=O)N(CC(=O)Nc3ccccc3)C2=O)cc1
IC50 [1]: Nd(Insoluble) | inhibition (Rattus norvegicus [2]): 8.83%

O=C(CN1C(=O)S/C(=C\c2ccccc2)C1=O)NCCc1ccccc1
inhibition (Rattus norvegicus [2]): 13.2% | solubility [7]: Insoluble

CN(C)CCC=C1c2ccccc2CCc2ccccc21 [AMITRIPTYLINE]
logD (physchem [11]): 2.85

O=C(CN1C(=O)S/C(=C\c2ccc(O)cc2)C1=O)Nc1ccccc1
IC50 ([1]; read-out: IC50): 2.93 µM | IC50 [9]: 3.91 µM | Ratio IC50 (Rattus norvegicus [10]): 1.3

CC(/C=C1\SC(=S)N(CC(=O)O)C1=O)=C\c1ccccc1
IC50 ([1]; read-out: IC50): 0.227 µM

O=C(CN1C(=O)S/C(=C\c2ccc(O)cc2)C1=O)NCc1ccccc1
IC50 ([1]; read-out: IC50): 19.8 µM

O=C(CN1C(=O)S/C(=C\c2ccc(O)cc2)C1=O)Nc1ccccc1Cl
solubility at 2 h, 200 µM (physchem [3]): 5.24 µM (≈ 2.04 µg/mL) | IC50 ([1]; read-out: IC50): 0.95 µM | logD (physchem [11]): 3.68 | IC50 [9]: 13.5 µM

COc1ccc(NC(=O)CN2C(=O)S/C(=C\c3ccc(O)cc3)C2=O)cc1
IC50 ([1]; read-out: IC50): 1.65 µM | IC50 [9]: 5.3 µM | Ratio IC50 (Rattus norvegicus [10]): 3.2

CCN(CC)C(=O)CN1C(=O)S/C(=C\c2ccc(OC)cc2)C1=O
solubility [7]: Insoluble | inhibition (Rattus norvegicus [8]): 19.5%

O=C(CN1C(=O)S/C(=C\c2ccccc2)C1=O)NC1CC1
inhibition (Rattus norvegicus [2]): 2.85% | solubility [7]: Insoluble

O=C(CN1C(=O)S/C(=C\c2cccc(O)c2)C1=O)NCc1ccccc1
IC50 ([1]; read-out: IC50): 3.25 µM | IC50 [9]: 28 µM | Ratio IC50 (Rattus norvegicus [10]): 8.6

NC(=O)N1c2ccccc2C=Cc2ccccc21 [CARBAMAZEPINE]
Papp A→B at 2.5 h (in vitro [13]): 26.2 ×10⁻⁶ cm/s | Papp B→A at 2.5 h (in vitro [14]): 24.8 ×10⁻⁶ cm/s | efflux ratio (in vitro [15]): 0.9

CC/C(=C(/CC)c1ccc(O)cc1)c1ccc(O)cc1 [DIETHYLSTILBESTROL]
solubility at 2 h, 200 µM (physchem [3]): 11.9 µM (≈ 3.21 µg/mL)

CCN(CC)C(=O)CN1C(=O)S/C(=C\c2cccc(Cl)c2)C1=O
solubility [7]: Insoluble | inhibition (Rattus norvegicus [8]): 0%

COc1ccc(/C=C2\SC(=O)N(CC(=O)Nc3ccccc3)C2=O)cc1O
IC50 [1]: Nd(Insoluble) | inhibition (Rattus norvegicus [2]): 29.9%

Cc1ncc2n1-c1ccc(Cl)cc1C(c1ccccc1F)=NC2 [MIDAZOLAM]
logD (physchem [11]): 3.28

CCOc1ccc(NC(=O)CN2C(=O)S/C(=C\c3ccc(OC)c(O)c3)C2=O)cc1
IC50 [1]: Nd(Insoluble) | inhibition (Rattus norvegicus [2]): 25.3%

CCN(CC)C(=O)CN1C(=O)S/C(=C\c2ccc(O)cc2)C1=O
IC50 ([1]; read-out: IC50): 1.33 µM | inhibition (Rattus norvegicus [2]): 77.7% | solubility [7]: Insoluble | IC50 [9]: 12.5 µM | Ratio IC50 (Rattus norvegicus [10]): 9.4

CCN(CC)C(=O)CN1C(=O)S/C(=C\c2ccc(OC)c(O)c2)C1=O
inhibition (Rattus norvegicus [12]): 31.6%

O=c1[nH]c2ccccc2n1CCCN1CCC(n2c(=O)[nH]c3cc(Cl)ccc32)CC1 [DOMPERIDONE]
Papp A→B at 2.5 h (in vitro [13]): 2.5 ×10⁻⁶ cm/s | Papp B→A at 2.5 h (in vitro [14]): 30.8 ×10⁻⁶ cm/s | efflux ratio (in vitro [15]): 12.2

CCN(CC)C(=O)CN1C(=O)S/C(=C\c2ccc(O)c(OC)c2)C1=O
inhibition (Rattus norvegicus [12]): 48% | IC50 ([1]; read-out: IC50): 56 µM

CCc1ccc(/C=C2\SC(=O)N(CC(=O)N(CC)CC)C2=O)cc1
solubility [7]: Insoluble | inhibition (Rattus norvegicus [8]): 5.05%

CCCCNC(=O)CN1C(=O)S/C(=C\c2ccc(Cl)cc2)C1=O
inhibition (Rattus norvegicus [2]): 6.53% | solubility [7]: Insoluble

CCN(CC)C(=O)CN1C(=O)S/C(=C\c2cccs2)C1=O
solubility [7]: Insoluble | inhibition (Rattus norvegicus [8]): 6.22%

CCN(CC)C(=O)CN1C(=O)S/C(=C\c2ccc(C)cc2)C1=O
solubility [7]: Insoluble | inhibition (Rattus norvegicus [8]): 20.2%

CCN(CC)C(=O)CN1C(=O)S/C(=C\c2cccc(O)c2)C1=O
solubility [7]: Insoluble | inhibition (Rattus norvegicus [8]): 0%
